ChEMBL document CHEMBL3400068, “Novel arylazopyrazole inhibitors of cyclin-dependent kinases” (Bioorg Med Chem, 2015)
Calls of active or inactive are those of the source. The rule behind the calls is not given here.

How the values were obtained:
K562 [1] = test: Cytotoxicity against human K562 cells after 72 hrs by calcein AM staining-based fluorescence assay; type: functional, cell-based; conditions: K562, 72 h
[2] = molecular target: Cyclin-dependent kinase 2/cyclin E1 (Homo sapiens, UniProt P24941); test: Inhibition of CDK2/cyclin E (unknown origin) expressed in baculovirus infected Sf9 cells
RPMI-8226 [3] = test: Cytotoxicity against human RPMI8226 cells after 72 hrs by calcein AM staining-based fluorescence assay; type: functional, cell-based; conditions: RPMI-8226, 72 h
MCF7 [4] = test: Cytotoxicity against human MCF7 cells after 72 hrs by calcein AM staining-based fluorescence assay; type: functional, cell-based; conditions: MCF7, 72 h
MCF7 [5] = test: Cell cycle arrest in 24 hrs thymidine-synchronized human MCF7 cells assessed as inhibition of re-entry to cell cycle at 5 to 10 uM after 16 hrs by propidium iodide staining-based flow cytometry; type: functional
MCF7 [6] = test: Cell cycle arrest in 8 hrs thymidine-synchronized human MCF7 cells assessed as inhibition of re-entry to cell cycle at 5 to 10 uM after 16 hrs by propidium iodide staining-based flow cytometry; type: functional
[7] = molecular target: Cyclin-dependent kinase 4/cyclin D1 (Homo sapiens, UniProt P11802); test: Inhibition of CDK4/cyclin D1 (unknown origin) expressed in baculovirus infected Sf9 cells
MCF7 [8] = test: Cell cycle arrest in human MCF7 cells assessed as accumulation at S phase at 40 uM after 24 hrs by propidium iodide staining-based flow cytometry (reference value: 28.3%); type: functional
MCF7 [9] = test: Cell cycle arrest in 24 hrs serum-deprived human asynchronous MCF7 cells assessed as inhibition of re-entry to G1 phase at 6.25 to 25 uM after 16 hrs by propidium iodide staining-based flow cytometry; type: functional
[10] = Cell cycle arrest in human RPMI8226 cells assessed as accumulation at S phase at 100 uM after 24 hrs by propidium iodide staining-based flow cytometry (reference value: 53%); type: functional; conditions: RPMI-8226
K562 [11] = test: Cell cycle arrest in human K562 cells assessed as accumulation at subG1 phase at 100 uM after 24 hrs by propidium iodide staining-based flow cytometry (reference value: 2.3%); type: functional
RPMI-8226 [12] = test: Induction of apoptosis in human RPMI8226 cells assessed as increase in caspase 9 activity at 25 to 100 uM after 24 hrs by fluorescence assay; type: functional, cell-based
K562 [13] = test: Cell cycle arrest in human K562 cells assessed as accumulation at G2/M phase at 100 uM after 24 hrs by propidium iodide staining-based flow cytometry (reference value: 25.8%); type: functional
MCF7 [14] = test: Cell cycle arrest in human MCF7 cells assessed as accumulation at G2/M phase at 40 uM after 24 hrs by propidium iodide staining-based flow cytometry (reference value: 9.8%); type: functional
RPMI-8226 [15] = test: Induction of apoptosis in human RPMI8226 cells assessed as increase in caspase 3 activity at 25 to 100 uM after 24 hrs by fluorescence assay; type: functional, cell-based
[16] = Cell cycle arrest in human RPMI8226 cells assessed as accumulation at G2/M phase at 100 uM after 24 hrs by propidium iodide staining-based flow cytometry (reference value: 24.8%); type: functional; conditions: RPMI-8226
RPMI-8226 [17] = test: Induction of apoptosis in human RPMI8226 cells assessed as PARP-1 cleavage at 25 to 100 uM after 24 hrs by immunoblot analysis; type: functional, cell-based
[18] = Cell cycle arrest in human RPMI8226 cells assessed as accumulation at G1 phase at 100 uM after 24 hrs by propidium iodide staining-based flow cytometry (reference value: 22.2%); type: functional; conditions: RPMI-8226
[19] = Cell cycle arrest in human RPMI8226 cells assessed as accumulation at subG1 phase at 100 uM after 24 hrs by propidium iodide staining-based flow cytometry (reference value: 9.8%); type: functional; conditions: RPMI-8226
RPMI-8226 [20] = test: Induction of apoptosis in human RPMI8226 cells assessed as caspase 3 activation at 25 to 100 uM after 24 hrs by immunoblot analysis; type: functional, cell-based
MCF7 [21] = test: Cell cycle arrest in 8 hrs thymidine-synchronized human MCF7 cells assessed as delay in cell cycle progression at 12.5 to 25 uM after 16 hrs by propidium iodide staining-based flow cytometry; type: functional
MCF7 [22] = test: Cell cycle arrest in 24 hrs thymidine-synchronized human MCF7 cells assessed as delay in cell cycle progression at 12.5 to 25 uM after 16 hrs by propidium iodide staining-based flow cytometry; type: functional
[23] = molecular target: Cyclin-dependent kinase 1/cyclin B1 (Homo sapiens, UniProt P06493); test: Inhibition of CDK1/cyclin B (unknown origin) expressed in baculovirus infected Sf9 cells
RPMI-8226 [24] = test: Induction of apoptosis in human RPMI8226 cells assessed as caspase 7 activation at 25 to 100 uM after 24 hrs by immunoblot analysis; type: functional, cell-based
K562 [25] = test: Cell cycle arrest in human K562 cells assessed as accumulation at G1 phase at 100 uM after 24 hrs by propidium iodide staining-based flow cytometry (reference value: 26.3%); type: functional
MCF7 [26] = test: Cell cycle arrest in human MCF7 cells assessed as accumulation at G1 phase at 40 uM after 24 hrs by propidium iodide staining-based flow cytometry (reference value: 61.9%); type: functional
K562 [27] = test: Cell cycle arrest in human K562 cells assessed as accumulation at S phase at 100 uM after 24 hrs by propidium iodide staining-based flow cytometry (reference value: 47.9%); type: functional
CDK9/cyclin T1 = CDK9/cyclin T1 (Homo sapiens, UniProt P50750); test: Inhibition of CDK9/cyclin T1 (unknown origin) expressed in baculovirus infected Sf9 cells
[28] = molecular target: Cyclin-dependent kinase 7/ cyclin H (Homo sapiens, UniProt P50613); test: Inhibition of CDK7/cyclin H (unknown origin) expressed in baculovirus infected Sf9 cells
MCF7 [29] = test: Cell cycle arrest in human MCF7 cells assessed as accumulation at subG1 phase at 40 uM after 24 hrs by propidium iodide staining-based flow cytometry (reference value: 0.6%); type: functional

Cyclin-dependent kinase 4/cyclin D1, sequence (P11802 whole entry): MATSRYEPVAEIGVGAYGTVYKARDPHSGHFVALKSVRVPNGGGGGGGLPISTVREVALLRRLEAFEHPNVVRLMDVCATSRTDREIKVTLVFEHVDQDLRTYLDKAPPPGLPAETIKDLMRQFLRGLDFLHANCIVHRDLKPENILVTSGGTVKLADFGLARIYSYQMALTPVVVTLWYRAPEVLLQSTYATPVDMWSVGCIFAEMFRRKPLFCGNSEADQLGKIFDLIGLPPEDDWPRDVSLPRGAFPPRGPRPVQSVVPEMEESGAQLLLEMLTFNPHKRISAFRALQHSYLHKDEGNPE
Cyclin-dependent kinase 4/cyclin D1, sequence (P24385 whole entry, further chain): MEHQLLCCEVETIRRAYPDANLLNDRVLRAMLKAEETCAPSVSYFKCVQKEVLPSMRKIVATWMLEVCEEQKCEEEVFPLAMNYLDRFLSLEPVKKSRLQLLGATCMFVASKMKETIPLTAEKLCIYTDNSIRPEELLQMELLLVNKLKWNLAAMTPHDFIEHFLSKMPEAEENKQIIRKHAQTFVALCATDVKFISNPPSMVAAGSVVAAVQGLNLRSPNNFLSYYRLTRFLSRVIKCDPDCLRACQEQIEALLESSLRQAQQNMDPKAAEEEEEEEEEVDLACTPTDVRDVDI
Cyclin-dependent kinase 7/ cyclin H, sequence (P51946 whole entry): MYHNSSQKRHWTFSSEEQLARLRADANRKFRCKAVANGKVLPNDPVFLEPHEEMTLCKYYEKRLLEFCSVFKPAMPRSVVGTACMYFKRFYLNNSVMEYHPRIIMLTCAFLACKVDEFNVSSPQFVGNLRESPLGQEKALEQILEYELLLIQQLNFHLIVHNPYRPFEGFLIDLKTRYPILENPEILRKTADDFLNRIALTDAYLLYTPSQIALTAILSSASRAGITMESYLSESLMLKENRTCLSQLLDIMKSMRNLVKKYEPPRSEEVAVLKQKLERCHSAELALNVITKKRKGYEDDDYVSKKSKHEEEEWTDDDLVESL
Cyclin-dependent kinase 7/ cyclin H, sequence (P50613 whole entry): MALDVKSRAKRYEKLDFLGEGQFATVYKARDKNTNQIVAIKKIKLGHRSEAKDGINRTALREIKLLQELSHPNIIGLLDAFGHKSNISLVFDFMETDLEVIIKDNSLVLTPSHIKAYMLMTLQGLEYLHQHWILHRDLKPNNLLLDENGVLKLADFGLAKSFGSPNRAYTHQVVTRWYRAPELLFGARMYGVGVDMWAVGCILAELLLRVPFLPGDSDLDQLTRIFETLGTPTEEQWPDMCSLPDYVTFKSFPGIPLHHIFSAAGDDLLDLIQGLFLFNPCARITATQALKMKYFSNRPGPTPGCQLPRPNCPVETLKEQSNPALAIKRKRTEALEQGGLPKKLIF
CDK9/cyclin T1, sequence (O60563 whole entry): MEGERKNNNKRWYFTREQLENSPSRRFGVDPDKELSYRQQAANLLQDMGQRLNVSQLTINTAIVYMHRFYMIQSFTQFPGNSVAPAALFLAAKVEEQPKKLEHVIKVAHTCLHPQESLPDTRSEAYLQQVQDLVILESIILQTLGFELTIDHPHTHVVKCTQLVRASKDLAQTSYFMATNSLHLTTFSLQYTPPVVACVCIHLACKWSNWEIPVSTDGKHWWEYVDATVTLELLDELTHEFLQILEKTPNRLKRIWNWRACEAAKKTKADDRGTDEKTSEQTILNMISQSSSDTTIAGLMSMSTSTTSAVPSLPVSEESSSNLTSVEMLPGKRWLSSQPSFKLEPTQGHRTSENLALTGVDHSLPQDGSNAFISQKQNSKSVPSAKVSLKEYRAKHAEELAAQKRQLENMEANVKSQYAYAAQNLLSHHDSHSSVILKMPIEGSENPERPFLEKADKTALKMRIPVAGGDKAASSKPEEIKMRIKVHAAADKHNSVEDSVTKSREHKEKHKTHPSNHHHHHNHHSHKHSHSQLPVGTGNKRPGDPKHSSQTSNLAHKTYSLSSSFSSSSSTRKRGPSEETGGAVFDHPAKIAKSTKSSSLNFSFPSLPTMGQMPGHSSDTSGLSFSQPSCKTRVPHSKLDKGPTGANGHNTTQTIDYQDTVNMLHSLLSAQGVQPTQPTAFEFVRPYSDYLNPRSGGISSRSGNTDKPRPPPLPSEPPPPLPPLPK
CDK9/cyclin T1, sequence (P50750 whole entry): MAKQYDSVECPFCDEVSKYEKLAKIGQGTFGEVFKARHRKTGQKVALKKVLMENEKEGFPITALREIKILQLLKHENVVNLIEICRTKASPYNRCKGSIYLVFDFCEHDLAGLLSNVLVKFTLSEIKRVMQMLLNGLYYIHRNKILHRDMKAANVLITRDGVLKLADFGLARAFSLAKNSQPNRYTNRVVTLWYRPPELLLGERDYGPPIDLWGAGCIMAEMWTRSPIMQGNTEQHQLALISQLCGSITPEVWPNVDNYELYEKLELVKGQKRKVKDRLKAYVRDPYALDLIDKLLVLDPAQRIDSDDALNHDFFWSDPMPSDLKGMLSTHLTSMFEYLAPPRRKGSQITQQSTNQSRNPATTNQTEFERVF
Cyclin-dependent kinase 1/cyclin B1, sequence (P06493 whole entry): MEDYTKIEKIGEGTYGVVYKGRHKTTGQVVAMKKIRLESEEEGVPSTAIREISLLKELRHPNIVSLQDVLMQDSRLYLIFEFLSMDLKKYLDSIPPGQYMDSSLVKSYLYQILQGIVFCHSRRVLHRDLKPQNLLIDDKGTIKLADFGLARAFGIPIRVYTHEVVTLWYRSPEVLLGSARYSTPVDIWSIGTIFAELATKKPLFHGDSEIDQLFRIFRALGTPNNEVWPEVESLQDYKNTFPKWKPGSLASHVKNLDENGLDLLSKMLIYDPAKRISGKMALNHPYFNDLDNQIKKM
Cyclin-dependent kinase 1/cyclin B1, sequence (P14635 whole entry, further chain): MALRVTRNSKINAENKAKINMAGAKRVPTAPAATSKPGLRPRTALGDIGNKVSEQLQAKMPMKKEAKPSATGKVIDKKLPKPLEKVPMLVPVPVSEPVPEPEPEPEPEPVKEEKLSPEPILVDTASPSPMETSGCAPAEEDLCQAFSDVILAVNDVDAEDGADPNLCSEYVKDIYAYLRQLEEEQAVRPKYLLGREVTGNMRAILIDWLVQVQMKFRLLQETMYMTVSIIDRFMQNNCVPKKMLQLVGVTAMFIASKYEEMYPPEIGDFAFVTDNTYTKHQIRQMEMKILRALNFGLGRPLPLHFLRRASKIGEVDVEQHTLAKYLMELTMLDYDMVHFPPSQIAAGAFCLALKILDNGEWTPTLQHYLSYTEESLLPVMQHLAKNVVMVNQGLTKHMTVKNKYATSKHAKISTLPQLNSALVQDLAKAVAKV

SMILES: CCOC(=O)n1nc(N)c(/N=N/c2ccc(O)cc2)c1N
- IC50 (K562 [1]): > 100 µM
- IC50 [2]: > 50 µM
- IC50 (RPMI-8226 [3]): > 100 µM
- IC50 (MCF7 [4]): > 100 µM

SMILES: Nc1n[nH]c(N)c1/N=N/c1cc[n+]([O-])cc1
- IC50 (K562 [1]): > 100 µM
- IC50 [2]: 17.4 µM
- IC50 (RPMI-8226 [3]): > 100 µM
- IC50 (MCF7 [4]): > 100 µM

SMILES: CCn1cnc2c(Nc3cccc(Cl)c3)nc(N[C@@H]3CCCC[C@@H]3N)nc21
- inhibition (MCF7 [5]): Active
- inhibition (MCF7 [6]): Active

SMILES: Nc1nn(C(=O)c2cccs2)c(N)c1/N=N/c1ccc(O)cc1
- IC50 (K562 [1]): > 25 µM
- IC50 [2]: > 25 µM
- IC50 (RPMI-8226 [3]): > 100 µM
- IC50 (MCF7 [4]): > 25 µM

SMILES: Nc1nn(C(=O)c2ccc([N+](=O)[O-])cc2)c(N)c1/N=N/c1ccc(O)cc1
- IC50 (K562 [1]): > 25 µM
- IC50 [2]: 15 µM
- IC50 (RPMI-8226 [3]): > 100 µM
- IC50 (MCF7 [4]): > 25 µM

SMILES: Cn1nc(N)c(/N=N/c2ccc(O)cc2)c1N
- IC50 (K562 [1]): 98.5 µM
- IC50 [2]: > 50 µM
- IC50 (RPMI-8226 [3]): > 100 µM
- IC50 (MCF7 [4]): > 100 µM

SMILES: CC(=O)n1nc(N)c(/N=N/c2ccc(O)cc2)c1N
- IC50 (K562 [1]): 64.9 µM
- IC50 [2]: 42.8 µM
- IC50 (RPMI-8226 [3]): > 100 µM
- IC50 (MCF7 [4]): 44.9 µM

SMILES: Nc1n[nH]c(N)c1/N=N/c1cccc[n+]1[O-]
- IC50 (K562 [1]): 62.6 µM
- IC50 [2]: > 100 µM
- IC50 (RPMI-8226 [3]): > 100 µM
- IC50 (MCF7 [4]): > 100 µM

SMILES: Nc1n[nH]c(N)c1/N=N/c1ccc(O)cc1
- IC50 (K562 [1]): 33 µM
- IC50 (RPMI-8226 [3]): 24.9 µM
- IC50 (MCF7 [4]): 62 µM

SMILES: Cn1nc(N)c(/N=N/c2ccncc2)c1N
- IC50 [7]: 0.42 µM
- IC50 (K562 [1]): 67.4 µM
- Activity (MCF7 [8]): 15.8%
- Activity (MCF7 [9]): Active
- IC50 [2]: 16.8 µM
- IC50 (RPMI-8226 [3]): 50 µM
- Activity [10]: 39.8%
- Activity (K562 [11]): 6.5%
- IC50 (MCF7 [4]): 37.7 µM
- Activity (RPMI-8226 [12]): Active
- Activity (K562 [13]): 35.4%
- Activity (MCF7 [14]): 33.5%
- Activity (RPMI-8226 [15]): Active
- Activity [16]: 28.9%
- Activity (RPMI-8226 [17]): Active
- Activity [18]: 31.3%
- Activity [19]: 57.7%
- Activity (RPMI-8226 [20]): Active
- Activity (MCF7 [21]): Active
- Activity (MCF7 [22]): Active
- IC50 [23]: 11.3 µM
- Activity (RPMI-8226 [24]): Active
- Activity (K562 [25]): 33.2%
- Activity (MCF7 [26]): 50.6%
- Activity (K562 [27]): 31.4%
- IC50 (CDK9/cyclin T1): 1.35 µM
- IC50 [28]: > 50 µM
- Activity (MCF7 [29]): 1%

SMILES: Nc1n[nH]c(N)c1/N=N/c1ccncc1
- IC50 (K562 [1]): 17 µM
- IC50 (RPMI-8226 [3]): 6.2 µM
- IC50 (MCF7 [4]): 4.3 µM
